Consider 59 molecules from ChEMBL document CHEMBL5390301, “Fragment-Based Screening Identifies New Quinazolinone-Based Inositol Hexakisphosphate Kinase (IP6K) Inhibitors” (ACS Med Chem Lett, 2023).

Inositol hexakisphosphate kinase 1, sequence (Q92551 whole entry): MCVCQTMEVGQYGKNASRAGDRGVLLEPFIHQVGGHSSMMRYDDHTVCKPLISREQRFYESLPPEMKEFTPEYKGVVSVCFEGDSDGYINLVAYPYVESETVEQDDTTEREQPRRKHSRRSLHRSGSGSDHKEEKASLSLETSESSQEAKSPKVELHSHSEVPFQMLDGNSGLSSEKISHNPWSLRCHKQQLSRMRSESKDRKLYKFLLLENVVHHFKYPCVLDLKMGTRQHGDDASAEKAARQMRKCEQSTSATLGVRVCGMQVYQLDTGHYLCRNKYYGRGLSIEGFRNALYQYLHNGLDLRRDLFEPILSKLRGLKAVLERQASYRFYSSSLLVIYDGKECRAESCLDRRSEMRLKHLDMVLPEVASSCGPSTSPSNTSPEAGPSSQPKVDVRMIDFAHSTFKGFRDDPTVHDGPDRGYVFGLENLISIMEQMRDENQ

One assay addresses Inositol hexakisphosphate kinase 1 (Homo sapiens, UniProt Q92551). Put plainly: Inhibition of IP6K1 (unknown origin) incubated for 30 min in presence of ATP by ADPGlo reagent based assay. For orientation: In ADP-Glo the light output rises with the ADP produced.
On to `Cc1cc(F)ccc1-c1cc(O)c2nc[nH]c(=O)c2c1`, for which the IC50 – broadly, the midpoint of a concentration-inhibition curve – is more than 200 µM. With `Cc1nc2ccc(N3CCCC3)cc2c(=O)[nH]1`, the IC50 is more than 200 µM. For `O=C1CCNc2ccc(/C=C/c3ccccc3)cc21`, the IC50 is more than 200 µM. As to `Cn1cnc2ccc(/C=C/c3ccccc3)cc2c1=O`, the IC50 is 112 µM. Regarding `Nc1cc2nc[nH]c(=O)c2cc1N1CCCC1`, the half-inhibitory concentration (IC50) worked out at 34.3 µM. With `O=c1[nH]cnc2ccc(/C=C/c3ccccn3)cc12`, the concentration for half-maximal inhibition (IC50) worked out at 32.4 µM. For `O=c1[nH]cnc2c([N+](=O)[O-])cc(N3CCCC3)cc12`, the 50% inhibitory concentration (IC50) is more than 200 µM. Take `O=c1[nH]cnc2ccc(/C=C/c3ccncc3)cc12`: the concentration for half-maximal inhibition (IC50) turned out to be 127 µM.

As to `CN1CCN(c2ccc3nc[nH]c(=O)c3c2)CC1`, the half-inhibitory concentration (IC50) is more than 200 µM.

Turning to `O=c1[nH]cnc2c(Cl)cc(/C=C/c3ccccc3)cc12`, the concentration for half-maximal inhibition (IC50) is more than 200 µM. Same read-out and setting: then `CN(C)C1CCN(c2ccc3nc[nH]c(=O)c3c2)CC1`, with more than 200 µM; and `O=c1[nH]cnc2ncc(/C=C/c3ccccc3)cc12`, with 118 µM. Still for that read-out and setting: then `O=c1[nH]cnc2c(Cl)cc(N3CCc4ccccc4CC3)cc12`, with more than 200 µM; and `O=c1[nH]cnc2ccc(N3CCCC3)nc12`, with more than 200 µM. Turning to `O=c1[nH]cnc2cc([N+](=O)[O-])c(N3Cc4ccccc4C3)cc12`, the IC50 worked out at 2.41 µM. As for `O=c1[nH]cnc2cc(F)c(N3CCCC3)cc12`, the half-inhibitory concentration (IC50) stood at 12.2 µM.

On to `Nc1cc(N2CCCC2)cc2c(=O)[nH]cnc12`, for which the half-inhibitory concentration (IC50) is 189 µM. In the case of `O=c1[nH]cnc2cnc(N3CCCC3)cc12`, the half-maximal inhibitory concentration (IC50) was found to be 94.4 µM. Regarding `CC1(C)C[N+](c2ccc3nc[nH]c(=O)c3c2)=Cc2ccccc21`, the half-maximal inhibitory concentration (IC50) worked out at 0.595 µM. For `Nc1nc2ccc(N3CCCC3)cc2c(=O)[nH]1`, the IC50 was more than 200 µM.

On to `O=S1(=O)NC=Nc2ccc(N3CCCC3)cc21`, for which the IC50 was more than 200 µM. `O=c1[nH]cnc2ccc(N3CCCCC3)cc12`: the IC50 is 25.9 µM. Same read-out and setting: then `O=c1[nH]cnc2ccc([N+]3=Cc4ccccc4CCC3)cc12`, with 45.2 µM; and `O=C1CCCc2ccc(N3CCCC3)cc21`, with more than 200 µM. Consider `O=c1[nH]cnc2ccc(N3CCCc4ccccc4C3)cc12`, for which the IC50 turned out to be 0.51 µM. `O=c1[nH]cnc2c(F)cc(N3CCCC3)cc12`: the half-maximal inhibitory concentration (IC50) came out at 6.84 µM. On the same count and under the same terms, then `CN(C)c1cccc(-c2cc(O)c3nc[nH]c(=O)c3c2)c1`, with 37.4 µM. For `Nc1cc2nc[nH]c(=O)c2cc1N1Cc2ccccc2C1`, the 50% inhibitory concentration (IC50) was 0.757 µM. In the case of `O=c1[nH]cnc2cc(N3CCCC3)c(Br)cc12`, the IC50 is 47.6 µM. In the case of `O=c1[nH]cnc2ccc(N3CCCC3)c(Br)c12`, the half-inhibitory concentration (IC50) is more than 200 µM. On the same count and under the same terms, the same measure for `Cc1nc2ccc(/C=C/c3ccccc3)cc2c(=O)[nH]1`: 85.3 µM; for `O=c1[nH]cnc2ccc(N3CCc4ccccc4C3)cc12`: 1.12 µM. Turning to `O=C(O)c1cc(/C=C/c2ccccc2)cc2c(=O)[nH]cnc12`, the IC50 was 67.2 µM. Turning to `c1cc2c(cc1N1CCCC1)CNCC2`, the IC50 is more than 200 µM. In the case of `Nc1ccc(N2CCCC2)cc1C(=O)O`, the IC50 amounted to 22.7 µM. The same measure, in the same setting: then `O=c1[nH]cnc2c(Cl)cc(N3CCCC3)cc12`, with 2.25 µM.

Regarding `O=c1[nH]cnc2ccc(OCc3ccccc3)cc12`, the concentration for half-maximal inhibition (IC50) came out at 13.3 µM. Regarding `O=c1[nH]cnc2ccc(N3CCCC3)c(Cl)c12`, the IC50 was more than 200 µM. On to `O=c1[nH]cnc2ccc(N3Cc4cccc(F)c4C3)cc12`, for which the half-maximal inhibitory concentration (IC50) came out at 1.07 µM. In the case of `O=c1[nH]cnc2ccc(NC3CCCCC3)cc12`, the half-maximal inhibitory concentration (IC50) came out at 71.5 µM. `O=c1[nH]c(=O)c2cc(N3CCCC3)ccc2[nH]1`: the 50% inhibitory concentration (IC50) was more than 200 µM. As for `O=C1NCCc2ccc(N3CCCC3)cc21`, the IC50 was more than 200 µM.

On to `Nc1ncnc2ccc(N3CCCC3)cc12`, for which the IC50 was determined as 48.9 µM. With `CN(C)c1ccc2nc[nH]c(=O)c2c1`, the IC50 came out at 75.4 µM. On the same count and under the same terms, then `CN(Cc1ccccc1)c1ccc2nc[nH]c(=O)c2c1`, with 15.4 µM; and `O=c1[nH]cnc2ccc([N+]3=Cc4ccccc4CC3)cc12`, with 2.88 µM. The same measure, in the same setting: then `O=c1[nH]cnc2ccc(N3CCC(c4ccccc4)CC3)cc12`, with 15.3 µM; and `O=c1[nH]cnc2ccc(NCc3ccccc3)cc12`, with 30.7 µM.

For another assay, the target named is T1, Inositol hexakisphosphate kinase 2 (Homo sapiens, UniProt Q9UHH9).
T1 sequence (Q9UHH9 whole entry): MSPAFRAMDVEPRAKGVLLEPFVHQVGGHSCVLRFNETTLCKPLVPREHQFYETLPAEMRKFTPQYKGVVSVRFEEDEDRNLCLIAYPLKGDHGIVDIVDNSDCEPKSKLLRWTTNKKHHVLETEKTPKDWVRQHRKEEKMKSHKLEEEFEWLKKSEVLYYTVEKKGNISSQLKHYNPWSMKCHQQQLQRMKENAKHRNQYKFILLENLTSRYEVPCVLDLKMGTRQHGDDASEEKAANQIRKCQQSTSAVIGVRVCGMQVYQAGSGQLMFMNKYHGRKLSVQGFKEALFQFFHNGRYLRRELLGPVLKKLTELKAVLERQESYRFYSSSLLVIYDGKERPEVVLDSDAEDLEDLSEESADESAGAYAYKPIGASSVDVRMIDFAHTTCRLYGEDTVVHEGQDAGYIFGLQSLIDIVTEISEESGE
Put plainly: Inhibition of IP6K2 (unknown origin) incubated for 2 hrs in presence of ATP by ADPGlo reagent based assay.
On to `O=c1[nH]cnc2ccc(N3CC[C@H]4CCCC[C@@H]4C3)cc12`, for which the half-maximal inhibitory concentration (IC50) turned out to be 91.9 µM. `O=c1[nH]cnc2ccc(CCc3ccccc3)cc12`: the IC50 was determined as 51.5 µM. As to `O=c1[nH]cnc2ccc(C#Cc3ccccc3)cc12`, the IC50 amounted to 96.3 µM. For `O=c1[nH]cnc2ccc(/C=C/c3ccc(F)cc3)cc12`, the IC50 was more than 200 µM. Turning to `O=c1[nH]cnc2ccc(/C=C/c3ccccc3)cc12`, the 50% inhibitory concentration (IC50) was 193 µM. As to `N#Cc1cc(N2CCCC2)cc2c(=O)[nH]cnc12`, the half-inhibitory concentration (IC50) turned out to be 28.8 µM. Still for that read-out and setting: the same measure for `O=c1[nH]cnc2ccc(N3C[C@H]4CCCC[C@H]4C3)cc12`: more than 200 µM. The same measure, in the same setting: the same measure for `O=c1[nH]cnc2ccc(N3CCc4ccccc4CC3)cc12`: more than 200 µM; for `O=c1[nH]cnc2ccc(C3=Cc4ccccc4C3)cc12`: more than 200 µM.

Regarding `O=c1[nH]cnc2ccc(N3CCCC3)cc12`, the IC50 was more than 200 µM.

Test system in the next assay: not listed separately
In words: Selectivity index, ratio of IC50 for IP6K2 (unknown origin) to ratio of IC50 for IP6K3 (unknown origin).
With `O=C(O)c1cccc(-c2oc3cc(O)c(O)cc3c(=O)c2O)c1`, the Ratio IC50 came out at 5.
